Experimental data reported in patent publication US6572877B2, “Worm food composition” (Legend Laboratories Corporation, priority 2001, dated 2003).

Test system: Lumbricus terrestris
Experiment: Feeding experiment with Lumbricus terrestris (Canadian night crawler), cartons of one dozen worms plus bedding
Type: in vivo
Conditions: Carton 1
Experimental: The first experiment was conducted with Lumbricus terrestris. Lumbricus terrestris typically measures from 90-300 mm by 6-10 mm having a dark anterior and a pale flattened posterior. These worms live in an anecic habit meaning that they build permanent, vertical burrows that extend typically 2.5 m into the soil. Such worms feed in decaying organic material and grow and breed very slowly compared to other worms. This worm must have the burrow to return to and simply won't perform well in a worm bin. In their natural habitat such worms can live up to six years.
In the experiment, five cartons containing one dozen worms plus bedding each were kept in the refrigerator at 36° F. to 40° F. prior to the beginning the experiment. After refrigeration the following compounds were added to the specified cartons. Carton 1 was treated with a stock solution of 5 ml xanthene acid yellow 73 from a stock solution of 0.5 g xanthene acid yellow 73 in 500 ml distilled water. Carton 2 was treated with 5 grams of a stock mixture having 40 grams corn meal and 1 gram xanthene acid yellow 73. This mixture was simply added to Carton 2 and was not agitated. Carton 3 was treated with 5 grams of the same stock mixture and shaken gently to evenly disperse the mixture in Container 3. Carton 4 was treated with 5 grams from a mixture of 40 grams corn meal and 2 grams xanthene acid yellow 73 and was not agitated. […]

## O=C([O-])c1ccccc1-c1c2ccc(=O)cc-2oc2cc([O-])ccc12.[Na+].[Na+] [xanthene acid yellow 73]
5 ml of stock solution 0.5 g in 500 ml distilled water, after 7 days
  color of the worm: no change in the color of the worm
5 ml of stock solution, after six weeks
  condition of the worms: weak and dying from lack of nutrition
